A melting point compilation (Tetko et al.; mined from patent text by program, amines drawn as free bases though some values may be those of a salt)

Row | Structure (SMILES) | melting point
1 | O=c1c2c(N3CCNCC3)cc(Cl)cc2n(Cc2ccccc2)c(=O)n1Cc1ccccc1Br | 94 to 97 °C
2 | O=C1NCCC[C@@H]1NS(=O)(=O)c1ccc(F)c(F)c1 | 153 to 155 °C
3 | CCOC(=O)Sc1cc(C)nc(C(Cl)(Cl)Cl)n1 | 33 to 34.5 °C
4 | CC(C)S(=O)(=O)c1ccc2c(c1)nc(CC1CC1)n2CC1CC1 | 107 °C
5 | CNCc1cc(=O)oc2cc(OC)ccc12 | 109 to 110 °C
6 | COC(=O)/C=C/C=C/c1ccc(OCc2nc(-c3ccccc3)oc2C)c(OC)c1 | 166 to 167 °C
7 | O=C1c2cc(O)ccc2OCN1CCO[N+](=O)[O-] | 80 °C
8 | CN(C)Cc1ccccc1Sc1ccc([N+](=O)[O-])cc1[N+](=O)[O-] | 128 to 129 °C
9 | O=C1OC(O)c2c(F)cccc21 (stereo unspecified) | 97 to 100 °C
10 | CCCCc1nc(C(C)(C)O)c(C(=O)O)n1Cc1ccc(-c2ccccc2C(=O)C(=O)O)cc1 | 165 to 170 °C
11 | CN(O)C(=O)c1ccc(NCCCc2ccccc2)cc1 | 107 to 108 °C
12 | CC(C)(C)OC(=O)NCCCn1c(-c2ccc([N+](=O)[O-])cc2)csc1=Nc1ccccc1 | 254 to 257 °C
13 | O=C(Nc1cc2ccccc2cn1)c1cncnc1NCc1ccncc1 | 218 to 220 °C
14 | N#Cc1c(C(N)=O)c2n(c1C1CC1)CCN(S(=O)(=O)c1ccc(C(F)(F)F)cc1)C2 | 253 to 256 °C
15 | COc1ccc2cnc(Nc3ccccc3)nc2c1C(C)C | 172 to 173 °C
16 | CCCCOc1ccc(NC(=O)c2cnc(C(=O)O)c(OC)c2)cc1 | 128 to 130 °C
17 | Clc1cc(N2CCNCC2)c(Cl)nn1 | 111 to 115 °C
18 | CCCC(=O)NCCC1=C(Cc2ccccc2)Cc2ccc(OC)cc21 | 127 to 129 °C
19 | CCCCCCCCCCCCCC/C=C\CNC(=O)OC(C)(C)C | 42 to 46 °C
20 | CCOC(=O)/C=C/c1cccc(Br)c1 | 26 to 28 °C
21 | O=C1NCc2c1cc1ccc3c(c1c2-c1cccnc1)OCO3 | 257 to 260 °C
22 | Oc1ccc(-c2c3ccccc3c(C(F)(F)F)c3sc4ccccc4c23)cc1 | 210 to 211 °C
23 | CCCCNC(=O)C(=O)Nc1ccc(OC)cc1[N+](=O)[O-] | 127 to 128 °C
24 | CCc1c(-c2ccc(O)cc2)c2cc(C(C)=O)c3ccc(O)c1n32 | 167 to 173 °C

Row | Structure (SMILES) | melting point
25 | Cc1cc(C(F)(F)F)c2cccc(O)c2n1 | 60 to 61 °C
26 | CN(C)S(=O)(=O)CS(=O)(=O)c1ccccc1 | 102 to 103 °C
27 | COc1ccc2nc(NCC3CCN(CC4COc5ccccc5O4)CC3)sc2c1 (stereo unspecified) | 135 °C
28 | N#Cc1c(-c2ccc(Cl)cc2)[nH]c(Cl)c1Cl | 259 to 261 °C
29 | CCOC(=O)C(C(=O)OCC)C(C#N)(c1ccc(F)cc1)c1ccc(F)cc1 | 90 to 91 °C
30 | CN(C)CCSC(=O)c1c[nH]c(=S)n1C1CCc2c(F)cc(F)cc2C1 (stereo unspecified) | 204 to 206 °C
31 | COC(=O)C(=O)O[C@H]1C[C@@H](C(=O)OC)[C@]2(C)CC[C@H]3C(=O)O[C@H](c4ccoc4)C[C@]3(C)[C@H]2C1=O | 241 to 244 °C
32 | COC(=O)C(Cl)Cc1ccc(O)cc1 (stereo unspecified) | 57 to 59 °C
33 | N#CC1(c2ccc(F)cc2)CCC(N2CCC(C(=O)O)(c3ccccc3)CC2)CC1 (stereo unspecified) | 281 °C
34 | CCCCNc1c(C(=O)OCC)cnc2[nH]ncc12 | 181 °C
35 | O=C(OCC1CCCC1)c1ncn2c1[C@@H]1CCCN1C(=O)c1c(Cl)cccc1-2 | 112 to 114 °C
36 | Cc1c(C#N)sc2nc(Cc3ccccc3)nc(N3CCOCC3)c12 | 88 to 90 °C
37 | COC(=O)C=Cc1cnc(N2CCC[C@H]2CO)nc1NCc1ccc(OC)c(Cl)c1 | 163 to 164 °C
38 | O=C(Nc1ccc(C(F)(F)F)cc1)[C@H]1[C@H](c2ccccc2)C12CCCC2 (relative stereo) | 171 to 173 °C
39 | COc1cncc(-c2ccc(OC3SCC(O)C(O)C3O)cn2)c1 (stereo unspecified) | 193 °C
40 | C/C=C/C=C(\C[C@H](N)C(=O)O)C(=O)O | 190 °C
41 | CCOC(C)n1c(C(=O)C(F)(F)F)nc(-c2ccc(OC)cc2)c1-c1ccc(OC)cc1 (stereo unspecified) | 124 to 126 °C
42 | COc1ccc(S(=O)(=O)N2C(=O)C(c3ccccc3OC)(N3Cc4ccccc4C[C@H]3C(=O)N(C)C)c3cc(Cl)c(C)cc32)c(OC)c1 (stereo partly specified) | 160 °C
43 | COC(=O)C1=C(C#N)NC(C)=C(C(=O)OCC(C)(C)C)C1c1ccccc1C#N (stereo unspecified) | 173 to 174 °C
44 | O=C1NC(=O)C(Cc2ccc(OCCN3CCOCC3)cc2)S1 (stereo unspecified) | 188 to 189 °C
45 | COC(=O)[C@@H](C)c1ccc2c(Br)c(OC)ccc2c1 | 94 to 95 °C
46 | COc1ccnc(Cc2cnc(NCCSCc3nc[nH]c3C)[nH]c2=O)c1 | 128 to 130 °C
47 | CCC1C(C)=NN=C(c2ccc(O)c(OC)c2)c2cc(OC)c(OC)cc21 (stereo unspecified) | 130 to 132 °C
48 | CON=C(C#N)C(=O)NC(=O)NC1CC1 | 182 °C

Row | Structure (SMILES) | melting point
49 | Brc1cn2ccccc2n1 | 83 to 85 °C
50 | CC(C)(C)OC(=O)N1CCC(NC(=O)c2ccc(Cn3cccn3)cc2)CC1 | 168 to 169 °C
51 | [N-]=[N+]=Nc1nc(N)nc2nc[nH]c12 | > 260 °C
52 | COC(=O)c1ccc(C(=O)C=CN(C)C)cc1Cl | 92 to 96 °C
53 | CCn1cc(C(=O)O)c(=O)c2cc(F)c(N3CCN(C)C(c4sc5ccccc5c4C)C3)cc21 (stereo unspecified) | 253 to 254 °C
54 | O=C(Nc1cccnn1)N1CCN(c2nccc(-c3ccccc3F)n2)CC1 | 228 to 229 °C
55 | CCOC(=O)c1cc2cc(C(F)(F)F)ccc2[nH]1 | 134 to 137 °C
56 | CC(C)C1(CCc2ccccc2CO)CC(O)=C(Sc2sc3ccccc3c2C(C)(C)C)C(=O)O1 (stereo unspecified) | 92 to 94 °C
57 | COc1ccc(-c2c(C(C)=O)c(CBr)nc3cc(OC)c(OC)cc23)cc1OC | 181 to 182 °C
58 | CCOC(=O)c1ncn2c1C(C)(C)Nc1ccccc1-2 | 145 to 149 °C
59 | CCOC(=N)c1c(O)ccc2ccccc12 | 145 to 146 °C
60 | CC(C)OC(=O)N[C@@H](C(=O)O)c1ccccc1 | 123 to 127 °C
61 | O=C(CCSCCOCCSCCC(=O)Nc1ccc(Nc2ccccc2)cc1)Nc1ccc(Nc2ccccc2)cc1 | 154 to 156 °C
62 | CS(=O)(=O)c1ccc(-c2n[nH]c(=O)cc2-c2ccc(Cl)cc2)cc1 | 254 to 255 °C
63 | N#Cc1nn(-c2c(Cl)cc(C(F)(F)F)cc2Cl)cc1C(=O)C1CC1 | 195 to 197 °C
64 | FC(F)(F)c1ccc(Oc2ccc(OCc3ccccc3)cc2)c(Cl)c1 | 63 to 66 °C
65 | O=c1[nH]c2c(c3ccccc13)c1cc(Cl)ccc1n2CC1CC1 | > 300 °C
66 | CCC1=C(C(=O)O)C(C(F)(F)F)Oc2ccc(Cl)cc21 (stereo unspecified) | 171 to 172 °C
67 | COc1ccc(S(=O)(=O)C2(CCCC#Cc3ccc(C(=O)O)cc3C)SC(=O)NC2=O)cc1 (stereo unspecified) | 182 to 184 °C
68 | CC(C)Oc1ccc(OCc2ccccc2)cc1-c1nc2ccc(CO)nc2[nH]1 | 167 to 168 °C
69 | Cc1cc(C2=NN(C(N)=S)[C@H](C)Cc3cc4c(cc32)OCO4)ccc1[N+](=O)[O-] | 123 to 125 °C
70 | O=C(Nc1cccc(CC(=O)OCc2ccccc2)c1)NC1C(=O)N(CC(=O)N2CCCC2)c2ccccc2N(c2ccccc2F)C1=O (stereo unspecified) | 104 to 106 °C
71 | N#Cc1cn(-c2ccc([N+](=O)[O-])cc2)nc1[N+](=O)[O-] | 172 to 175 °C
